Test results published in patent US20060094059A1, “Methods for identifying new drug leads and new therapeutic uses for known drugs” (Odyssey Thera, Inc., priority 2004, published 2006).
Like-named read-outs stand apart in the source and are kept apart here.

How the values were obtained:
[1] = tested on: PAK4:Cofilin; assay: Protein-fragment complementation assay PAK4:Cofilin; format: cell-based, human; details: hit in PAK4/CFL assay; drugs screened at 10 micromolar
Excerpt: (§1) To construct dynamic assays for protein-protein complexes, we used a protein-fragment complementation assay strategy (PCAs) in intact human cells. (A variety of other suitable assays, and reporter options, are described in detail below.) The principle of PCA is that complementary polypeptide fragments (F[1] and F[2]) of a reporter protein or enzyme will fold into an active form only if fused to two proteins which interact and bring the complementary fragments of the reporter protein into proximity. Reconstitution of the fragments of the reporter protein generates a fluorescent signal that can be quantified in intact cells, and the amount of the signal is proportional to the amount of the protein-protein complex used in constructing the assay. Given a suitable reporter type, the subcellular location of the complex can also be measured.
(§2) Reporter fragments for PCA were generated by oligonucleotide synthesis (Blue Heron Biotechnology, Bothell, Wash.), starting with the sequence of yellow fluorescent protein (YFP). First, oligonucleotides coding for polypeptide fragments YFP[1]and YFP[2] […] Next, PCR mutagenesis was used to generate the mutant fragments IFP[1] and IFP[2]. The IFP[1] fragment corresponds to YFP[1]-(F46L, F64L, M153T) and the IFP[2] fragment corresponds to YFP[2]-(V163A, S175G). […] The YFP[1], YFP[2], IFP[1] and IFP[2] fragments were amplified by PCR to incorporate restriction sites and a linker sequence, described below, in configurations that would allow fusion of a gene of interest to either the 5′- or 3′-end of each reporter fragment. The reporter-linker fragment cassettes were subcloned into a mammalian expression vector (pcDNA3.1Z, Invitrogen) that had been modified to incorporate the replication origin (oriP) of the Epstein Barr virus (EBV). […] Additionally, these vectors still retain the SV40 origin, allowing for episomal expression in cell lines expressing the SV40 large T antigen (e.g. HEK293T, Jurkat or COS).
(§3) PCA fusion constructs were prepared for a proteins known to participate in cellular pathways that have been described in the scientific literature as being linked to cancer. The selection of protein-protein complexes used, and the rationale for their use, is provided in Table 1 and the gene identifiers for the cDNAs used in assay construction are provided in Table 2. The full coding sequence for each gene of interest was amplified by PCR from a sequence-verified full-length cDNA. Resulting PCR products were column purified (Centricon), digested with appropriate restriction enzymes to allow directional cloning, and fused in-frame to either the 5′ or 3′-end of YFP[1], YFP[2], IFP[1] or IFP[2] through a linker encoding a flexible 10 amino acid peptide (Gly.Gly.Gly.Gly.Ser)2. […] Recombinants in the host strains DH5-alpha (Invitrogen, Carlsbad, Calif.) or XL1 Blue MR (Stratagene, La Jolla, Calif.) were screened by colony PCR, and clones containing inserts of the correct size were subjected to end sequencing to confirm the presence of the gene of interest and in-frame fusion to the appropriate reporter fragment. A subset of fusion constructs were selected for full-insert sequencing by primer walking. DNAs were isolated using Qiagen MaxiPrep kits (Qiagen, Chatsworth, Calif.). PCR was used to assess the integrity of each fusion construct, by combining the appropriate gene-specific primer with a reporter-specific primer to confirm that the correct gene-fusion was present and of the correct size with no internal deletions.
(§4) HEK293 cells were maintained in MEM alpha medium (Invitrogen) supplemented with 10% FBS (Gemini Bio-Products), 1% penicillin, and 1% streptomycin, and grown in a 37° C. incubator equilibrated to 5% CO2. […] Up to 100 ng of the complementary YFP or IFP-fragment fusion vectors were co-transfected using Fugene 6 (Roche) according to the manufacturer's protocol.

[2] = tested on: CDC42:PAK4 complexes; assay: Protein-fragment complementation assay CDC42:PAK4; format: cell-based, human; details: hit in CDC42/PAK4 assay; drugs screened at 10 micromolar
Excerpt: as §1, §2, §3, §4

[3] = tested on: colon adenocarcinoma (LoVo) cells; assay: MTT proliferation assay, colon; format: cell-based, Human; details: Tumor Cell Colon (LoVo), 120 hours, read-out: Anti-proliferative IC-50
Method: (§5) Cells were maintained in various media as follows: A549, LoVo and PC-3 (Ham's F12K medium with 2 mM L-glutamine and 1.5 g/L sodium bicarbonate), MIA PaCa-2 (Dulbecco's modified Eagle's medium with 4 mM L-glutamine and 4.5 g/L glucose), U87-MG (MEM+Earle's BSS). Medium for each cell line was supplemented with 10% FBS and […] Penecillin/Streptomycin. All cells were grown in incubators set at 37° C., 5% CO2. Thiazolyl Blue Tetrazolium Bromide (MTT) based proliferation assays were performed to assess the anti-proliferative activities of the compounds on these cells. Cells were seeded in 96 well plates at a density of 750 cells/well 24 hours prior to compound treatment. The cells were incubated with varying concentrations of compounds for 120 hours. […] Drug treatment was performed in 5 replicate wells. Background absorbance was established by wells containing medium but no cells. Vehicle (DMSO) only was used as control. MTT (Sigma-Aldrich, St. Louis, Mo.) was added to each well at a final concentration of 0.5 mg/ml. Following a 2 hour incubation at 37° C., medium in the wells was replaced with 0.15 ml DMSO. The plates were agitated for 15 min using a microtiter plate shaker.

[4] = tested on: non-small cell lung carcinoma (A549) cells; assay: MTT proliferation assay, NSCLC; format: cell-based, Human; details: Tumor Cell NSCLC (A549), 120 hours, read-out: Anti-proliferative IC-50
Method: as §5

[5] = tested on: prostate adenocarcinoma (PC-3) cells; assay: MTT proliferation assay, prostate; format: cell-based, Human; details: Tumor Cell Prostate (PC-3), MTT, 120 hours, read-out: Anti-proliferative IC-50
Method: (§6) We used these methods to mine the known pharmacopeia for drugs with previously-unsuspected activity against cancer-related pathways. […] Hits from our cell-based screens were tested for antiproliferative activity in up to 5 different human tumor cell lines, as follows. First, drugs with significant activity in the cellular screen(s) were tested for their ability to block proliferation of a human tumor cell line (PC-3) at an initial concentration of 10 micromolar. For drugs with antiproliferative activity in PC-3 cells, dose-response curves to determine the IC50 for antiproliferative activity and additional tumor cell lines were tested to determine the breadth of activity. Methods for assessing the antiproliferative activity of the cell-based drug ‘hits’ are described below.
as §5

[6] = tested on: Chk1:CDC25C; assay: Protein-fragment complementation assay Chk1:CDC25C; format: cell-based, human; details: hit in CDC25C/Chk1 assay (with or without CPT not stated); drugs screened at 10 micromolar
Excerpt: as §1
(§7) Reporter fragments for PCA were generated by oligonucleotide synthesis (Blue Heron Biotechnology, Bothell, Wash.), starting with the sequence of yellow fluorescent protein (YFP). First, oligonucleotides coding for polypeptide fragments YFP[1]and YFP[2] […] Next, PCR mutagenesis was used to generate the mutant fragments IFP[1] and IFP[2]. The IFP[1] fragment corresponds to YFP[1]-(F46L, F64L, M153T) and the IFP[2] fragment corresponds to YFP[2]-(V163A, S175G). […]

[7] = tested on: pancreatic carcinoma (MIA PaCa-2) cells; assay: MTT proliferation assay, pancreatic; format: cell-based, Human; details: Tumor Cell Pancreatic (MIA PaCa-2), 120 hours, read-out: Anti-proliferative IC-50
Method: as §5

[8] = tested on: EGFR:Grb2; assay: Cell-based assay EGFR:Grb2; parameters: species or system human; details: hit in EGFR/Grb2 assay; drugs screened at 10 micromolar
Excerpt: as §1, §7

[9] = tested on: glioblastoma (U-87 MG) cells; assay: MTT proliferation assay, glioblastoma; format: cell-based; details: Homo sapiens, Tumor Cell Glioblastoma (U-87 MG), 120 hours, read-out: Anti-proliferative IC-50
Method: as §5

[10] = tested on: HSP90:Eef2k; assay: Protein-fragment complementation assay Hsp90:Eef2k; format: cell-based, human; details: hit in HSP90/Eef2k assay; drugs screened at 10 micromolar
Excerpt: as §1
as §2, with “COS). […]” for “COS).”

[11] = tested on: CDC25C:Cdc2; assay: Protein-fragment complementation assay CDC25C:Cdc2; format: cell-based, human; details: hit in CDC2/CDC25C assay; drugs screened at 10 micromolar
Excerpt: as §1, §7

[12] = tested on: MAX:MYC; assay: Protein-fragment complementation assay MAX:MYC; format: cell-based, human; details: hit in MYC/MAX assay; drugs screened at 10 micromolar
Excerpt: as §1, §7

[13] = tested on: BAD:BID; assay: Protein-fragment complementation assay BAD:BID; format: cell-based, human; details: hit in BAD/BID assay; drugs screened at 10 micromolar
Excerpt: as §1, §7

[14] = tested on: human tumor cell lines; assay: MTT proliferation assay and phase contrast images, cell line not given (FIGS. 5-10); format: cell-based; details: treated cells vs. DMSO control, cell line not named
Method: as §6
Cells were maintained in various media as follows: A549, LoVo and PC-3 (Ham's F12K medium with 2 mM L-glutamine and 1.5 g/L sodium bicarbonate), MIA PaCa-2 (Dulbecco's modified Eagle's medium with 4 mM L-glutamine and 4.5 g/L glucose), U87-MG (MEM+Earle's BSS). Medium for each cell line was supplemented with 10% FBS and […] Penecillin/Streptomycin. All cells were grown in incubators set at 37° C., 5% CO2. Thiazolyl Blue Tetrazolium Bromide (MTT) based proliferation assays were performed to assess the anti-proliferative activities of the compounds on these cells. Cells were seeded in 96 well plates at a density of 750 cells/well 24 hours prior to compound treatment. The cells were incubated with varying concentrations of compounds for 120 hours. Compound concentrations range from 0.03 to 100 microM (half log increments) except for alpha-Tomatine (0.001-100 microM, half log increments), Neriifolin (0.0002-100 microM) and Peruvoside (0.01-100 microM). Drug treatment was performed in 5 replicate wells. Background absorbance was established by wells containing medium but no cells. Vehicle (DMSO) only was used as control. MTT (Sigma-Aldrich, St. Louis, Mo.) was added to each well at a final concentration of 0.5 mg/ml. Following a 2 hour incubation at 37° C., medium in the wells was replaced with 0.15 ml DMSO. The plates were agitated for 15 min using a microtiter plate shaker. […] Mean absorbance values were calculated from 5 replicate wells of each drug treatment following subtraction of background absorbance from blank samples and plotted as a percentage of control.

[15] = tested on: Wee1:Cdc2; assay: Protein-fragment complementation assay Wee1:Cdc2; format: cell-based, human; details: hit in Wee1/Cdc2 assay; drugs screened at 10 micromolar
Excerpt: as §1, §7

[16] = tested on: Cofilin:LIMK2; assay: Protein-fragment complementation assay Cofilin:LIMK2; format: cell-based, human; details: hit in Cofilin/LIMK2 assay; drugs screened at 10 micromolar
Excerpt: as §1, §7

IC50 ([3]; Homo sapiens) | IC50 ([4]; Homo sapiens) | IC50 ([5]; Homo sapiens) | IC50 ([7]; Homo sapiens) | IC50 [9] | Structure (SMILES) | Assay activity [1] | Assay activity [2] | also measured
 |  |  |  |  | Fc1ccc(C(c2ccc(F)cc2)N2CCN(C/C=C/c3ccccc3)CC2)cc1 [Flunarizine] | PAK4/CFL, | CDC42/PAK4 | 
1400 nM | 230 nM | 630 nM | 377 nM | 860 nM | CC1(C)CCC2=C(O1)c1ccccc1C(=O)C2=O [beta-Lapachone] |  |  | Assay activity [6]: CDC25C/Chk1; Assay activity [8]: EGFR/Grb2,
 |  |  |  |  | CO[C@H]1[C@H](O)[C@H](O[C@H]2CC[C@@]3(C)[C@H](CC[C@@H]4[C@@H]3CC[C@]3(C)[C@@H](C5=CC(=O)OC5)CC[C@]43O)C2)O[C@@H](C)[C@@H]1O [Neri$$olin, Neriifolin] | PAK4/CFL, | CDC42/PAK4 | IC50 [3]: 18 nM; IC50 [4]: 5 nM; IC50 [5]: 11 nM; IC50 [7]: 4 nM
25800 nM | 24300 nM | 7680 nM | 8800 nM | 24600 nM | O=C(CCCN1CC=C(n2c(=O)[nH]c3ccccc32)CC1)c1ccc(F)cc1 [Droperidol] | PAK4/CFL |  | 
 |  |  |  |  | CN[C@H]1CC[C@@H](c2ccc(Cl)c(Cl)c2)c2ccccc21 [Sertraline] |  |  | Assay activity [10]: Eef2K/hsp90,; Assay activity [11]: CDC2/CDC25C,; Assay activity [12]: MAX/MYC; Assay activity [8]: EGFR/Grb2,; Assay activity [13]: BAD/BID,; cell count (phase contrast images) [14]: reduced the cell count
1130 nM | 2230 nM | 1850 nM | 1930 nM | 1120 nM | CCCCCCCCNC(C)C(O)c1ccc(SC(C)C)cc1 (centres unmarked) [Suloctidil] | PAK4/CFL, | CDC42/PAK4 | 
 |  |  |  | 4600 nM | CC(C)c1c(C(=O)Nc2ccccc2)c(-c2ccccc2)c(-c2ccc(F)cc2)n1CC[C@@H](O)C[C@@H](O)CC(=O)O [Atorvastatin] | CFL1/PAK4 |  | Assay activity [16]: CFL1/LIMK2,; cell count (phase contrast images) [14]: decreased the cell count

Structure (SMILES) | IC50 ([3]; Homo sapiens) | IC50 ([4]; Homo sapiens) | IC50 ([5]; Homo sapiens) | IC50 ([7]; Homo sapiens) | IC50 [9] | Assay activity [1] | Assay activity [2] | also measured
CO[C@H]1[C@H](O)[C@H](O[C@H]2CC[C@@]3(C=O)[C@H](CC[C@@H]4[C@@H]3CC[C@]3(C)[C@@H](C5=CC(=O)OC5)CC[C@]43O)C2)O[C@@H](C)[C@@H]1O [Peruvoside] | 9 nM | 4 nM | 5 nM | 3 nM | 2 nM |  |  | Assay activity [15]: Wee1/Cdc2
